ChEMBL document CHEMBL5226380, “O-Alkylazoxymycins A-F, Naturally Occurring Azoxy-Aromatic Compounds from Streptomyces sp. Py50” (2023)
In brackets after ≈: the same amount, converted by molar mass. Where a name gives a salt, the structure may show the parent alone.

Tested on: Epidermophyton floccosum
Test: Antifungal activity against Epidermophyton floccosum assessed as inhibition of fungal growth incubated for 24 hrs
Assay type: functional

Row | Compound | MIC50
1 | CN(C/C=C/C#CC(C)(C)C)Cc1cccc2ccccc12 [TERBINAFINE HYDROCHLORIDE] | 0.003 µM
2 | O=C(O)CCCCCCc1ccccc1/N=[N+](\[O-])c1ccccc1CCCCC(=O)O | 23.1 µM (≈ 9.85 µg/mL)
3 | O=C(O)CCCCCCc1ccccc1/N=[N+](\[O-])c1ccccc1CCCCCCC(=O)O | 51.2 µM (≈ 23.3 µg/mL)
4 | O=C(O)CCCCCCc1ccccc1/[N+]([O-])=N/c1ccccc1CCCCC(=O)O | 10.1 µM (≈ 4.31 µg/mL)
